Test results as given in patent publication US20260262643A1, “HERBICIDAL BENZOXAZINES” (FMC CORPORATION, priority 2022, published 2026).

Assays:
blackgrass [1] = assay: Test A preemergence; type: in vivo, Alopecurus myosuroides
Source text: (§1) Seeds of plant species selected from barnyardgrass (Echinochloa crusgalli), blackgrass (Alopecurus myosuroides), corn (Zea mays), foxtail, giant (giant foxtail, Setaria faberi), goosegrass (Eleusine indica), kochia (Bassia scoparia), oat, wild (wild oat, Avena fatua), pigweed, palmer (palmer amaranth, palmer pigweed, Amaranthus palmeri), Pigweed, Redroot (redroot pigweed, Amaranthus retroflexus), ragweed (common ragweed, Ambrosia artemisiifolia), ryegrass, Italian (italian ryegrass, Lolium multiflorum), soybean (Glycine max), and wheat (Triticum aestivum) were planted into a blend of loam soil and sand and treated preemergence with a directed soil spray using test chemicals formulated in a non-phytotoxic solvent mixture which included a surfactant. At the same time, plants selected from these crops and weed species and also galium (catchweed bedstraw, Galium aparine) and horseweed (Erigeron canadensis) were planted in pots containing the same blend of loam soil and sand and treated with postemergence applications of test chemicals formulated in the same manner. Plants ranged in height from 2 to 10 cm and were in the one- to two-leaf stage for the postemergence treatment. Treated plants and untreated controls were maintained in a greenhouse for 10 days, after which time all treated plants were compared to untreated controls and visually evaluated for injury. Plant response ratings, summarized in Table A, are based on a 0 to 100 scale where 0 is no effect and 100 is complete control. A dash (-) response means no test result.

foxtail, giant [2] = assay: Test A preemergence; type: in vivo, Setaria faberi
Source text: as §1

goosegrass [3] = assay: Test A preemergence; type: in vivo, Eleusine indica
Source text: as §1

kochia [4] = assay: Test A preemergence; type: in vivo, Bassia scoparia
Source text: as §1

pigweed, palmer [5] = assay: Test A preemergence; type: in vivo, Amaranthus palmeri
Source text: as §1

ragweed [6] = assay: Test A preemergence; type: in vivo, Ambrosia artemisiifolia
Source text: as §1

ryegrass, Italian [7] = assay: Test A preemergence; type: in vivo, Lolium multiflorum
Source text: as §1

blackgrass [8] = assay: Test A postemergence; type: in vivo, Alopecurus myosuroides; conditions: 0 to 100 scale; for Plant response rating, Blackgrass: 1000 g ai/ha, Postemergence
Source text: as §1

foxtail, giant [9] = assay: Test A postemergence; type: in vivo, Setaria faberi; conditions: 0 to 100 scale; for Plant response rating, Foxtail, Giant: 1000 g ai/ha, Postemergence
Source text: as §1

goosegrass [10] = assay: Test A postemergence; type: in vivo, Eleusine indica; conditions: 0 to 100 scale; for Plant response rating, Goosegrass: 1000 g ai/ha, Postemergence
Source text: as §1

kochia [11] = assay: Test A postemergence; type: in vivo, Bassia scoparia; conditions: 0 to 100 scale; for Plant response rating, Kochia: 1000 g ai/ha, Postemergence
Source text: as §1

pigweed, palmer [12] = assay: Test A postemergence; type: in vivo, Amaranthus palmeri; conditions: 0 to 100 scale; for Plant response rating, Pigweed, Palmer: 1000 g ai/ha, Postemergence
Source text: as §1

ragweed [13] = assay: Test A postemergence; type: in vivo, Ambrosia artemisiifolia; conditions: 0 to 100 scale; for Plant response rating, Ragweed: 1000 g ai/ha, Postemergence
Source text: as §1

ryegrass, Italian [14] = assay: Test A postemergence; type: in vivo, Lolium multiflorum; conditions: 0 to 100 scale; for Plant response rating, Ryegrass, Italian: 1000 g ai/ha, Postemergence
Source text: as §1

galium = assay: Test A postemergence; type: in vivo, Galium aparine; conditions: 1000 g ai/ha, Postemergence; 0 to 100 scale
Source text: as §1

horseweed = assay: Test A postemergence; type: in vivo, Erigeron canadensis; conditions: 0 to 100 scale; for Plant response rating, Horseweed: 1000 g ai/ha, Postemergence
Source text: as §1

corn [15] = assay: Test A preemergence; type: in vivo, Zea mays; conditions: 125 g ai/ha, visual injury after 10 days, 0 to 100 scale, 0 is no effect, 100 is complete control
Source text: as §1

oat, wild [16] = assay: Test A preemergence; type: in vivo, Avena fatua; conditions: 125 g ai/ha, visual injury after 10 days, 0 to 100 scale, 0 is no effect, 100 is complete control
Source text: as §1

soybean [17] = assay: Test A preemergence; type: in vivo, Glycine max; conditions: 125 g ai/ha, visual injury after 10 days, 0 to 100 scale, 0 is no effect, 100 is complete control
Source text: as §1

wheat [18] = assay: Test A preemergence; type: in vivo, Triticum aestivum; conditions: 125 g ai/ha, visual injury after 10 days, 0 to 100 scale, 0 is no effect, 100 is complete control
Source text: as §1

corn [19] = assay: Test A postemergence; type: in vivo, Zea mays; conditions: 125 g ai/ha, postemergence, 10 days; 0 to 100 scale, 0 no effect, 100 complete control
Source text: as §1

oat, wild [20] = assay: Test A postemergence; type: in vivo, Avena fatua; conditions: 125 g ai/ha, postemergence, 10 days; 0 to 100 scale, 0 no effect, 100 complete control
Source text: as §1

soybean [21] = assay: Test A postemergence; type: in vivo, Glycine max; conditions: 125 g ai/ha, postemergence, 10 days; 0 to 100 scale, 0 no effect, 100 complete control
Source text: as §1

wheat [22] = assay: Test A postemergence; type: in vivo, Triticum aestivum; conditions: 125 g ai/ha, postemergence, 10 days; 0 to 100 scale, 0 no effect, 100 complete control
Source text: as §1

[23] = 1000 g ai/ha, 0 to 100 scale (0 no effect, 100 complete control), 10 days
[24] = 125 g ai/ha, visual injury after 10 days, 0 to 100 scale, 0 is no effect, 100 is complete control
[25] = 125 g ai/ha, postemergence, 10 days, 0 no effect, 100 complete control

SMILES: Cc1nc(-c2cccc(C(=O)N3C[C@H](C)Oc4c(Cl)cccc43)c2)no1 [Compound 120]
- Plant response rating, Blackgrass (blackgrass [1]; [23]): 10
- Plant response rating, Foxtail, Giant (foxtail, giant [2]; [23]): 20
- Plant response rating, Goosegrass (goosegrass [3]; [23]): 10
- Plant response rating, Kochia (kochia [4]; [23]): 0
- Plant response rating, Pigweed, Palmer (pigweed, palmer [5]; [23]): 0
- Plant response rating, Ragweed (ragweed [6]; [23]): 0
- Plant response rating, Ryegrass, Italian (ryegrass, Italian [7]; [23]): 10
- Plant response rating, Blackgrass (blackgrass [8]): 0
- Plant response rating, Foxtail, Giant (foxtail, giant [9]): 20
- Plant response rating, Goosegrass (goosegrass [10]): 10
- Plant response rating, Kochia (kochia [11]): 50
- Plant response rating, Pigweed, Palmer (pigweed, palmer [12]): 40
- Plant response rating, Ragweed (ragweed [13]): 0
- Plant response rating, Ryegrass, Italian (ryegrass, Italian [14]): 0
- Plant response rating, Galium (galium): 40
- Plant response rating, Horseweed (horseweed): 0

SMILES: CCC(C)c1ncn(-c2cccc(C(=O)N3C[C@H](C)Oc4c(C)cccc43)c2)n1 (stereo partly shown) [Compound 87]
- Plant response rating, Blackgrass (blackgrass [1]; [24]): 40
- Plant response rating, Corn (corn [15]): 10
- Plant response rating, Foxtail, Giant (foxtail, giant [2]; [24]): 50
- Plant response rating, Goosegrass (goosegrass [3]; [24]): 80
- Plant response rating, Kochia (kochia [4]; [24]): 30
- Plant response rating, Oat, Wild (oat, wild [16]): 20
- Plant response rating, Pigweed, Palmer (pigweed, palmer [5]; [24]): 30
- Plant response rating, Ragweed (ragweed [6]; [24]): 0
- Plant response rating, Ryegrass, Italian (ryegrass, Italian [7]; [24]): 100
- Plant response rating, Soybean (soybean [17]): 0
- Plant response rating, Wheat (wheat [18]): 0
- Blackgrass plant response rating (blackgrass [8]; [25]): 10
- Corn plant response rating (corn [19]): 10
- Foxtail, Giant plant response rating (foxtail, giant [9]; [25]): 10
- Goosegrass plant response rating (goosegrass [10]; [25]): 30
- Kochia plant response rating (kochia [11]; [25]): 70
- Oat, Wild plant response rating (oat, wild [20]): 20
- Pigweed, Palmer plant response rating (pigweed, palmer [12]; [25]): 30
- Ragweed plant response rating (ragweed [13]; [25]): 50
- Ryegrass, Italian plant response rating (ryegrass, Italian [14]; [25]): 10
- Soybean plant response rating (soybean [21]): 40
- Wheat plant response rating (wheat [22]): 10
- Horseweed plant response rating (horseweed; [25]): 0

SMILES: Cc1noc(-c2cccc(C(=O)N3C[C@H](C)Oc4c(Cl)cccc43)c2)n1 [Compound 121]
- Plant response rating, Blackgrass (blackgrass [1]; [23]): 0
- Plant response rating, Foxtail, Giant (foxtail, giant [2]; [23]): 60
- Plant response rating, Goosegrass (goosegrass [3]; [23]): 0
- Plant response rating, Kochia (kochia [4]; [23]): 0
- Plant response rating, Pigweed, Palmer (pigweed, palmer [5]; [23]): 60
- Plant response rating, Ragweed (ragweed [6]; [23]): 0
- Plant response rating, Ryegrass, Italian (ryegrass, Italian [7]; [23]): 0
- Plant response rating, Blackgrass (blackgrass [8]): 0
- Plant response rating, Foxtail, Giant (foxtail, giant [9]): 20
- Plant response rating, Goosegrass (goosegrass [10]): 0
- Plant response rating, Kochia (kochia [11]): 70
- Plant response rating, Pigweed, Palmer (pigweed, palmer [12]): 50
- Plant response rating, Ragweed (ragweed [13]): 0
- Plant response rating, Ryegrass, Italian (ryegrass, Italian [14]): 0
- Plant response rating, Galium (galium): 80
- Plant response rating, Horseweed (horseweed): 0

SMILES: Cc1csc(-c2cccc(C(=O)N3C[C@H](C)Oc4c(Cl)cccc43)c2)n1 [Compound 124]
- Plant response rating, Blackgrass (blackgrass [1]; [23]): 0
- Plant response rating, Foxtail, Giant (foxtail, giant [2]; [23]): 80
- Plant response rating, Goosegrass (goosegrass [3]; [23]): 60
- Plant response rating, Kochia (kochia [4]; [23]): 0
- Plant response rating, Pigweed, Palmer (pigweed, palmer [5]; [23]): 30
- Plant response rating, Ragweed (ragweed [6]; [23]): 0
- Plant response rating, Ryegrass, Italian (ryegrass, Italian [7]; [23]): 60
- Plant response rating, Blackgrass (blackgrass [8]): 0
- Plant response rating, Foxtail, Giant (foxtail, giant [9]): 40
- Plant response rating, Goosegrass (goosegrass [10]): 0
- Plant response rating, Kochia (kochia [11]): 30
- Plant response rating, Pigweed, Palmer (pigweed, palmer [12]): 60
- Plant response rating, Ragweed (ragweed [13]): 0
- Plant response rating, Ryegrass, Italian (ryegrass, Italian [14]): 0
- Plant response rating, Galium (galium): 30
- Plant response rating, Horseweed (horseweed): 0

SMILES: C[C@H]1CN(C(=O)c2cccc(-n3cncn3)c2)c2cc([N+](=O)[O-])ccc2O1 [Compound 49]
- Plant response rating, Blackgrass (blackgrass [1]; [23]): 0
- Plant response rating, Foxtail, Giant (foxtail, giant [2]; [23]): 20
- Plant response rating, Goosegrass (goosegrass [3]; [23]): 30
- Plant response rating, Kochia (kochia [4]; [23]): 0
- Plant response rating, Pigweed, Palmer (pigweed, palmer [5]; [23]): 0
- Plant response rating, Ragweed (ragweed [6]; [23]): 0
- Plant response rating, Ryegrass, Italian (ryegrass, Italian [7]; [23]): 30
- Plant response rating, Blackgrass (blackgrass [8]): 0
- Plant response rating, Foxtail, Giant (foxtail, giant [9]): 10
- Plant response rating, Goosegrass (goosegrass [10]): 10
- Plant response rating, Kochia (kochia [11]): 10
- Plant response rating, Pigweed, Palmer (pigweed, palmer [12]): 0
- Plant response rating, Ragweed (ragweed [13]): 30
- Plant response rating, Ryegrass, Italian (ryegrass, Italian [14]): 30
- Plant response rating, Galium (galium): 30
- Plant response rating, Horseweed (horseweed): 0

SMILES: O=C(c1ccnc(-n2cncn2)c1)N1CC(CF)Oc2c(Cl)cccc21 (stereo not shown) [Compound 36]
- Plant response rating, Blackgrass (blackgrass [1]; [23]): 70
- Plant response rating, Foxtail, Giant (foxtail, giant [2]; [23]): 100
- Plant response rating, Goosegrass (goosegrass [3]; [23]): 90
- Plant response rating, Kochia (kochia [4]; [23]): 20
- Plant response rating, Pigweed, Palmer (pigweed, palmer [5]; [23]): 40
- Plant response rating, Ragweed (ragweed [6]; [23]): 30
- Plant response rating, Ryegrass, Italian (ryegrass, Italian [7]; [23]): 50
- Plant response rating, Blackgrass (blackgrass [8]): 60
- Plant response rating, Foxtail, Giant (foxtail, giant [9]): 90
- Plant response rating, Goosegrass (goosegrass [10]): 30
- Plant response rating, Kochia (kochia [11]): 60
- Plant response rating, Pigweed, Palmer (pigweed, palmer [12]): 60
- Plant response rating, Ragweed (ragweed [13]): 60
- Plant response rating, Ryegrass, Italian (ryegrass, Italian [14]): 40
- Plant response rating, Galium (galium): 90
- Plant response rating, Horseweed (horseweed): 0

SMILES: Cc1nc(-c2cccc(C(=O)N3C[C@H](C)Oc4c(Cl)cccc43)c2)cs1 [Compound 125]
- Plant response rating, Blackgrass (blackgrass [1]; [23]): 0
- Plant response rating, Foxtail, Giant (foxtail, giant [2]; [23]): 20
- Plant response rating, Goosegrass (goosegrass [3]; [23]): 20
- Plant response rating, Kochia (kochia [4]; [23]): 0
- Plant response rating, Pigweed, Palmer (pigweed, palmer [5]; [23]): 30
- Plant response rating, Ryegrass, Italian (ryegrass, Italian [7]; [23]): 60
- Plant response rating, Blackgrass (blackgrass [8]): 20
- Plant response rating, Foxtail, Giant (foxtail, giant [9]): 20
- Plant response rating, Goosegrass (goosegrass [10]): 0
- Plant response rating, Kochia (kochia [11]): 50
- Plant response rating, Pigweed, Palmer (pigweed, palmer [12]): 40
- Plant response rating, Ragweed (ragweed [13]): 0
- Plant response rating, Ryegrass, Italian (ryegrass, Italian [14]): 0
- Plant response rating, Galium (galium): 40
- Plant response rating, Horseweed (horseweed): 0
